Structures are written as SMILES.

The subject of one experiment is iNOS. In words: Western blotting of lung tissue, OVA-sensitized and -challenged mice. Type of experiment: in vivo. The note with it: nebulization, 28-day experiment. In general terms: In western blotting, separated proteins are transferred to a membrane and probed.
The next experiment concerns PKG. Described as above. It counts as in vivo. To be noted: nebulization, 28-day experiment.
Experiment [1] deals with inflammatory cells, vascular and bronchial wall. In words: Histological analyses of lung, OVA-exposed mice. Type of experiment: in vivo. From the text:
Histological analyses show the typical pathologic features of asthma in the OVA-exposed mice. Numerous inflammatory cells including eosinophils are infiltrated around the peri-vascular and peri-bronchial region, compared to control mice. […] After OVA challenge, marked increases in PA wall thickness % are found, compared to controls P<0.01).
OVA-sensitization increases the vascular and bronchial wall thickness, however, treatment with long-term KMUP-1 nebulization prevents these changes. […] MMP-9-immunostaining in peri-bronchial region and the reduced MMP-9-positive cells in bronchiole co-indicate the reduction of migration of infiltrated inflammatory cells.

In another experiment the test system is eNOS. The experiment can be described thus: Immunostaining of lung sections, OVA mice. Type of experiment: in vivo. From the text:
OVA decreases vascular eNOS-immunostaining in lung sections, but KMUP-1 prevents this decrease quantitatively.

For a further experiment, the system named is MMP-9. In words: Immunostaining of lung sections, OVA mice. Type of experiment: in vivo. The note with it: OVA-sensitized and -challenged mice.
Experiment [2] is described as follows: Monocrotaline (MCT)-induced pulmonary arterial hypertension, PABP. It counts as in vivo, male Wistar rats. To be noted: MCT-treated rats. On the procedure: The rats administered MCT (60 mg/kg) are caused pulmonary artery hypertension on day 21 after the intraperitoneal injection. The KMUP-1HCl salt (2.5 mg/kg), Simvastatin (2.5 mg/kg), KMUP-1-nicotinic acid complex (2.5 mg/kg), KMUP-1-citric acid complex (2.5 mg/kg), KMUP-1-Simvastatinic Acid complex (2.5 mg/kg) and KMUP-1-γ-polyglutamic acid complex (2.5 mg/kg) orally administered, or the KMUP-1-PGI2 complex (0.1 mM) inhaled every day may inhibit the pulmonary arterial blood pressure (PABP) in MCT-treated male Wistar rats.

In a further experiment the test system is TGF-β. The experiment can be described thus: TGF-β expression, bleomycin-induced lung fibrosis (EIA). It counts as in vivo, mice. To be noted: BM 60 mg/kg; drug 2.5 mg/kg oral. As for the experimental part:
The increased amount of the collagen synthesis and the macrophage generation in alveolus may facilitate the formulation of TGF-β, and the expression of TGF-β is deeming as a biomarker of the lung fibrosis. KMUP-1HCl salt (1, 2.5 and 5 mg/kg), the Simvastatin (5 mg/kg), the KMUP-1-nicotinic acid complex (2.5 mg/kg), the KMUP-1-Simvastatinic acid complex (2.5 mg/kg) and KMUP-1-γ-polyglutamic acid complex (2.5 mg/kg) are orally administered to the mice for inhibiting the lung fibrosis induced by TGF-β expression in tracheal lavage solution that resulted from 60 mg/kg BM inhalation (Table 6). The state of the TGF-β expression in the lavage is measured by the enzyme immunoassay (EIA).

Regarding `Cn1c(=O)c2c(ncn2CCN2CCN(c3ccccc3Cl)CC2)n(C)c1=O` [KMUP-1, 7-[2-[4-(2-chlorobenzene)piperazinyl]ethyl]-1,3-dimethylxanthine], the “iNOS expression increased by OVA sensitization” value in the experiment with iNOS is reported as “significantly reduced”. In addition, in the experiment with PKG, the “PKG expression reduced by OVA sensitization” value was “prevented”. Further, the “Inflammatory cells in the peri-vascular and peri-bronchiolar regions” value in experiment [1] (OVA-exposed mice) was “marked reductions”. Further, in experiment [1] (long-term nebulization), the “Vascular and bronchial wall thickness increased by OVA-sensitization” value is reported as “prevents”. The “Vascular eNOS-immunostaining decreased by OVA” value in the experiment on eNOS was “prevents”. Moreover, the MMP-9 positive cells entry with MMP-9 is reported as “hardly detected”.
For the molecule `CCC(C)(C)C(=O)O[C@H]1C[C@@H](C)C=C2C=C[C@H](C)[C@H](CC[C@@H](O)C[C@@H](O)CC(=O)O)[C@H]21.Cn1c(=O)c2c(ncn2CCN2CCN(c3ccccc3Cl)CC2)n(C)c1=O` [KMUP-5], the “Pulmonary arterial blood pressure (PABP), in words” value in experiment [2] (2.5 mg/kg orally every day) is reported as “inhibit”. The molecule also gave a PABP in experiment [2] (2.5 mg/kg/day p.o.) of 12 ± 1.3 mmHg. The “The changing amount of TGF-β in the lung tissue” value in the experiment on TGF-β stood at 45 ± 4.5%.

For the origin of these results see patent publication US20100317671A1, “XANTHINE-BASED CYCLIC GMP-ENHANCING RHO-KINASE INHIBITOR INHIBITS PHYSIOLOGICAL ACTIVITIES OF LUNG EPITHELIAL CELL LINE” (KAOHSIUNG MEDICAL UNIVERSITY, priority 2008, published 2010).
